Measurements taken from article PMC7669657 (Nature chemical biology, 2020).

Legend:
NSD1 SET domain [1] = target: T1, NSD1 SET domain (Homo sapiens, UniProt Q96L73); assay type: binding; settings: 150 μM 15N NSD1 SET, 1H-15N HSQC
T1 sequence (Q96L73 1852-2085): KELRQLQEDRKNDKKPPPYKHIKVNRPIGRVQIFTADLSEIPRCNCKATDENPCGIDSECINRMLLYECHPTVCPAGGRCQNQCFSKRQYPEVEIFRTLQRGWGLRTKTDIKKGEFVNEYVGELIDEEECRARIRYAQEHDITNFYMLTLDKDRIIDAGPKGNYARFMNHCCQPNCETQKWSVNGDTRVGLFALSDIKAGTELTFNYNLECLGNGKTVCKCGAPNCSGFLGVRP

NSD1 SET domain [2] = target: T2, NSD1 SET domain (Homo sapiens, UniProt Q96L73); assay: MS covalent engagement and kinetics, NSD1 SET; assay type: binding; settings: 1 μM NSD1 SET, 50 μM compound, 18 h, 32 °C
T2 sequence (Q96L73 1852-2105): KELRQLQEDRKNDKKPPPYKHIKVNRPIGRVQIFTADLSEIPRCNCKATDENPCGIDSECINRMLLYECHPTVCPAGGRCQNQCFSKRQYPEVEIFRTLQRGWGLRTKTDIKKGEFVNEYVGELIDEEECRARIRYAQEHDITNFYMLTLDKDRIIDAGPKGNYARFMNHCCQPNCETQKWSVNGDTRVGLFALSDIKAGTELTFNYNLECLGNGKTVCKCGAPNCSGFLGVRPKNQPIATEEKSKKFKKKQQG

For `COc1cc(Br)cc2sc(N)nc12` [Compound 8], the “chemical shift perturbations / binding by NMR” value (NSD1 SET domain [1]) was “less pronounced chemical shift perturbations”.
With `NC(=O)/C=C/c1cc(O)c2nc(N)sc2c1` [Compound 9] the “covalent binding by MS” value (NSD1 SET domain [2]) was “lack covalent binding” and the “chemical shift perturbations / binding by NMR” value (NSD1 SET domain [1]) was “only weakly interact”.
